# Measured values as given in ChEMBL document CHEMBL5034036, “Aryloxy Pivaloyloxymethyl Prodrugs as Nucleoside Monophosphate Prodrugs” (J Med Chem, 2021).
# Experiments:
# MCF7 [1] = experiment: Cytotoxicity against human MCF7 cells assessed as inhibition of cell proliferation measured after 48 hrs by MTT assay; assay type: functional, cell-based; details: MCF7, 48 h
# [2] = Drug metabolism assessed as recombinant carboxypeptidase Y-mediated metabolite formation measured measured by 31P-NMR analysis; assay type: ADME; details: saccharomyces cerevisiae
# [3] = Serum stability of the compound in human serum assessed as half life measured by 31P-NMR analysis; assay type: ADME, cell-free
# MCF7 [4] = experiment: Cytotoxicity against human MCF7 cells assessed as inhibition of cell proliferation measured after 24 hrs by MTT assay; assay type: functional, cell-based; details: MCF7, 24 h
# Liver carboxylesterase = molecular target: T1, Liver carboxylesterase (Sus scrofa, UniProt Q29550); experiment: Stability in porcine liver esterase assessed as intact compound measured by NMR analysis; assay type: ADME; details: pig
# T1 sequence (Q29550 whole entry): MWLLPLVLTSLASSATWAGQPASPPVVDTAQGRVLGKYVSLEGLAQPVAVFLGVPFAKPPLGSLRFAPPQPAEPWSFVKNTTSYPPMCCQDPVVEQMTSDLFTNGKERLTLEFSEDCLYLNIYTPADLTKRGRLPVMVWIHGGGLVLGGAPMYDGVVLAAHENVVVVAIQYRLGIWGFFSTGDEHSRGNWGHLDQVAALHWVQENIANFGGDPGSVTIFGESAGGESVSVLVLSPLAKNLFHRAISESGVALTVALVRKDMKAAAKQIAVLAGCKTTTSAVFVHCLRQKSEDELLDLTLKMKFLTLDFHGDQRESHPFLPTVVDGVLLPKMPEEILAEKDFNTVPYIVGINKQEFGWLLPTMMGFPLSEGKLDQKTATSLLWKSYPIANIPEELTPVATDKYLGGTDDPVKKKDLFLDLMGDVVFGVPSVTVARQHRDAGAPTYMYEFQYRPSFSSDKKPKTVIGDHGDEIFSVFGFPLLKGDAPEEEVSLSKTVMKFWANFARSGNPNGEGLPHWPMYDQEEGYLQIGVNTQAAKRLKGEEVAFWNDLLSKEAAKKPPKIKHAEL
# [5] = Drug metabolism in human serum assessed as metabolite B formation by 31P-NMR analysis; assay type: ADME, cell-free
# A549 [6] = experiment: Cytotoxicity against human A549 cells after 24 hrs measured by MTT assay; assay type: functional, cell-based; details: A549, 24 h
# A549 [7] = experiment: Cytotoxicity against human A549 cells after 48 hrs measured by MTT assay; assay type: functional, cell-based; details: A549, 48 h
SMILES,IC50 (MCF7 [1]) [µM],Drug metabolism [2],half-life [3] [h],IC50 (MCF7 [4]) [µM],Stability (Liver carboxylesterase),Drug metabolism [5],IC50 (A549 [6]) [µM],IC50 (A549 [7]) [µM]
CC(C)(C)C(=O)OCOP(=O)(OC[C@H]1O[C@@H](n2cc(F)c(=O)[nH]c2=O)C[C@@H]1O)Oc1ccccc1 (stereo partly drawn),13.1,Metabolite_Notdetected,≥ 12,63.6,Stable,Metabolite_Detected,,
O=c1[nH]c(=O)n([C@H]2C[C@H](O)[C@@H](CO)O2)cc1F [FLOXURIDINE],46.9,,,> 100,,,> 100,> 100
CC(C)(C)C(=O)OCOP(=O)(OC[C@H]1O[C@@H](n2cc(F)c(=O)[nH]c2=O)C[C@@H]1O)Oc1cccc2ccccc12 (stereo partly drawn),35.5,,,28.8,,,52.5,34.5
COC(=O)[C@H](C)NP(=O)(OC[C@H]1O[C@@H](n2cc(F)c(=O)[nH]c2=O)C[C@@H]1O)Oc1ccccc1 (stereo partly drawn),84.8,,,> 100,,,69.5,36
